Assay results published in publication PMC11842588, “A first-in-class selective inhibitor of ERK1/2 and ERK5 overcomes drug resistance with a single-molecule strategy” (Signal Transduction and Targeted Therapy, 2025).

Experiments:
Assay in all cases: Kinase profiling
Assay type in all cases: biochemical
PDGFRα(h) = target: T1, PDGFRα(h) (Homo sapiens, UniProt P16234)
T1 construct: purchased Eurofins Cerep SA (KinaseProfiler)
Description: (§1) 380 kinases inhibitory activities of SKLB-D18 were conducted by Eurofins Cerep SA. The result was illustrated by kinase tree (http://www.kinhub.org/kinmap/).

Arg(h) = target: T2, Arg(h) (Homo sapiens, UniProt P42684)
T2 construct: purchased Eurofins Cerep SA (KinaseProfiler)
Description: as §1

BIKe(h) = target: T3, BIKe(h) (Homo sapiens, UniProt Q9NSY1)
T3 construct: purchased Eurofins Cerep SA (KinaseProfiler)
Description: as §1

PKCμ(h) = target: T4, PKCμ(h) (Homo sapiens, UniProt Q15139)
T4 construct: purchased Eurofins Cerep SA (KinaseProfiler)
Description: as §1

STK25(h) = target: T5, STK25(h) (Homo sapiens, UniProt O00506)
T5 construct: purchased Eurofins Cerep SA (KinaseProfiler)
Description: as §1

IGF-1R(h) = target: T6, IGF-1R(h) (Homo sapiens, UniProt P08069)
T6 construct: purchased Eurofins Cerep SA (KinaseProfiler)
Description: as §1

PIP4K2a(h) = target: T7, PIP4K2a(h) (Homo sapiens, UniProt P48426)
T7 construct: purchased Eurofins Cerep SA (KinaseProfiler)
T7 sequence (P48426 whole entry): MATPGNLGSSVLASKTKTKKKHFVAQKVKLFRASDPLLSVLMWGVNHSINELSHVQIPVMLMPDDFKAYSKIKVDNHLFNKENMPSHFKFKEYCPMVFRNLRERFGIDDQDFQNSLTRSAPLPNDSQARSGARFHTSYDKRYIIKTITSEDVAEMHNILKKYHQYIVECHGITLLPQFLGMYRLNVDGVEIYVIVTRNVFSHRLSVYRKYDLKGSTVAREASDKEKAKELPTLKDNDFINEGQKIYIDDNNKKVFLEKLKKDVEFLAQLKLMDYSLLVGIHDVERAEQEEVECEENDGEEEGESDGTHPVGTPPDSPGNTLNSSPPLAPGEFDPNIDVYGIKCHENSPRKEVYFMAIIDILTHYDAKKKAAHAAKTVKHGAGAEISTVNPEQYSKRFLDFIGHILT
Description: as §1

GSK3α(h) = target: T8, GSK3α(h) (Homo sapiens, UniProt P49840)
T8 construct: purchased Eurofins Cerep SA (KinaseProfiler)
Description: as §1

DDR2(h) = target: T9, DDR2(h) (Homo sapiens, UniProt Q16832)
T9 construct: purchased Eurofins Cerep SA (KinaseProfiler)
Description: as §1

CaMKI(h) = target: T10, CaMKI(h) (Homo sapiens, UniProt Q14012)
T10 construct: purchased Eurofins Cerep SA (KinaseProfiler)
T10 sequence (Q14012 whole entry): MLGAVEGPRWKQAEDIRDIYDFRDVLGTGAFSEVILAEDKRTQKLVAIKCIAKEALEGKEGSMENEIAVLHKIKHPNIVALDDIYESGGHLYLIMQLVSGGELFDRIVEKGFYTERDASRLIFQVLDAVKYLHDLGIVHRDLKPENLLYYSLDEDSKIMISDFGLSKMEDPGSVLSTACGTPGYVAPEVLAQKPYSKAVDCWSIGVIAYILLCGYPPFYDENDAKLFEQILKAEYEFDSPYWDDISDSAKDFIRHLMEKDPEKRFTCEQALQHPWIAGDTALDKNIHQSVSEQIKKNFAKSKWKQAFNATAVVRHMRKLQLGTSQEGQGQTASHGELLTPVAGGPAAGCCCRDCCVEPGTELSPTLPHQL
Description: as §1

Yes(h) = target: T11, Yes(h) (Homo sapiens, UniProt P07947)
T11 construct: purchased Eurofins Cerep SA (KinaseProfiler)
Description: as §1

MARK3(h) = target: T12, MARK3(h) (Homo sapiens, UniProt P27448)
T12 construct: purchased Eurofins Cerep SA (KinaseProfiler)
Description: as §1

PIP5K1g(h) = target: T13, PIP5K1g(h) (Homo sapiens, UniProt O60331)
T13 construct: purchased Eurofins Cerep SA (KinaseProfiler)
T13 sequence (O60331 whole entry): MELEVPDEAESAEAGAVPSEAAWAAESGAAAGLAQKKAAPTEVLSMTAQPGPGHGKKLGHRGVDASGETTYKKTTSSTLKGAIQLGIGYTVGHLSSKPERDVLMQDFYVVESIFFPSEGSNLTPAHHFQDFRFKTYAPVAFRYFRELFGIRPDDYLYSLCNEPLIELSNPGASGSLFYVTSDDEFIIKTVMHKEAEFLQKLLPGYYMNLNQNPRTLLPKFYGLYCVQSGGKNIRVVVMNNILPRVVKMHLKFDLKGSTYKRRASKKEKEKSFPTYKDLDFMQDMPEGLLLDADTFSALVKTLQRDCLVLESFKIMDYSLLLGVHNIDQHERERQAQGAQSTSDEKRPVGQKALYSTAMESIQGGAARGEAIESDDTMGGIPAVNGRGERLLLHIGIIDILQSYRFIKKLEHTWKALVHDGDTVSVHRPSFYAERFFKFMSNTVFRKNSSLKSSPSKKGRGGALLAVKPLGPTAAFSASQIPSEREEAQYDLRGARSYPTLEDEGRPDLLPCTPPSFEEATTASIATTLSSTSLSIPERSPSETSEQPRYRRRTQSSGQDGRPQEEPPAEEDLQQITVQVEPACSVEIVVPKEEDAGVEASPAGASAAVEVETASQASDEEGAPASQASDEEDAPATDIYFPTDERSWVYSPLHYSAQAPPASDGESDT
Description: as §1

TrkC(h) = target: T14, TrkC(h) (Homo sapiens, UniProt Q16288)
T14 construct: purchased Eurofins Cerep SA (KinaseProfiler)
Description: as §1

cSRC(h) = target: T15, cSRC(h) (Homo sapiens, UniProt P12931)
T15 construct: purchased Eurofins Cerep SA (KinaseProfiler)
Description: as §1

cKit(h) = target: T16, cKit(h) (Homo sapiens, UniProt P10721)
T16 construct: purchased Eurofins Cerep SA (KinaseProfiler)
Description: as §1

WNK3(h) = target: T17, WNK3(h) (Homo sapiens, UniProt Q9BYP7)
T17 construct: purchased Eurofins Cerep SA (KinaseProfiler)
Description: as §1

GRK3(h) = target: T18, GRK3(h) (Homo sapiens, UniProt P35626)
T18 construct: purchased Eurofins Cerep SA (KinaseProfiler)
T18 sequence (P35626 whole entry): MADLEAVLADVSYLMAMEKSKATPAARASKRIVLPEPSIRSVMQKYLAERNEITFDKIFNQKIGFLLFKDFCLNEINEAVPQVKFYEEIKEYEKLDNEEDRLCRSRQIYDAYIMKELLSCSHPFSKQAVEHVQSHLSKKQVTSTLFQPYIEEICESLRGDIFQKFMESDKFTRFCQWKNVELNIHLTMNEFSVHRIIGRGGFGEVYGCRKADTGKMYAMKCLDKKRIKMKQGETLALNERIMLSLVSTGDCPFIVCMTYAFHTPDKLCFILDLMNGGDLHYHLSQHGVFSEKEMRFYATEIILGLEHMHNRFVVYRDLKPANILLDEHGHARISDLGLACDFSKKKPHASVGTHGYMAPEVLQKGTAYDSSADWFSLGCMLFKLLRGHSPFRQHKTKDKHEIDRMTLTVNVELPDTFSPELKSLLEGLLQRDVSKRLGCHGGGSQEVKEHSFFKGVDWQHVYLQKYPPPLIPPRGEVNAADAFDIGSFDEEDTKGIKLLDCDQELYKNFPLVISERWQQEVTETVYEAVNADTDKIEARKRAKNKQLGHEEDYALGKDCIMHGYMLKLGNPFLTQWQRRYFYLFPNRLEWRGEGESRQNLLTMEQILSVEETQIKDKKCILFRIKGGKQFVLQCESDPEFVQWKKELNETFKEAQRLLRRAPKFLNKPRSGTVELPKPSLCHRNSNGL
Description: as §1

MST3(h) = target: T19, MST3(h) (Homo sapiens, UniProt Q9Y6E0)
T19 construct: purchased Eurofins Cerep SA (KinaseProfiler)
Description: as §1

IKKβ(h) = target: T20, IKKβ(h) (Homo sapiens, UniProt O14920)
T20 construct: purchased Eurofins Cerep SA (KinaseProfiler)
Description: as §1

ROCK-I(h) = target: T21, ROCK-I(h) (Homo sapiens, UniProt Q13464)
T21 construct: purchased Eurofins Cerep SA (KinaseProfiler)
Description: as §1

HIPK2(h) = target: T22, HIPK2(h) (Homo sapiens, UniProt Q9H2X6)
T22 construct: purchased Eurofins Cerep SA (KinaseProfiler)
Description: as §1

Pim-2(h) = target: T23, Pim-2(h) (Homo sapiens, UniProt Q9P1W9)
T23 construct: purchased Eurofins Cerep SA (KinaseProfiler)
Description: as §1

PKG1β(h) = target: T24, PKG1β(h) (Homo sapiens, UniProt Q13976)
T24 construct: purchased Eurofins Cerep SA (KinaseProfiler)
T24 sequence (Q13976 1-686 isoform Q13976-2): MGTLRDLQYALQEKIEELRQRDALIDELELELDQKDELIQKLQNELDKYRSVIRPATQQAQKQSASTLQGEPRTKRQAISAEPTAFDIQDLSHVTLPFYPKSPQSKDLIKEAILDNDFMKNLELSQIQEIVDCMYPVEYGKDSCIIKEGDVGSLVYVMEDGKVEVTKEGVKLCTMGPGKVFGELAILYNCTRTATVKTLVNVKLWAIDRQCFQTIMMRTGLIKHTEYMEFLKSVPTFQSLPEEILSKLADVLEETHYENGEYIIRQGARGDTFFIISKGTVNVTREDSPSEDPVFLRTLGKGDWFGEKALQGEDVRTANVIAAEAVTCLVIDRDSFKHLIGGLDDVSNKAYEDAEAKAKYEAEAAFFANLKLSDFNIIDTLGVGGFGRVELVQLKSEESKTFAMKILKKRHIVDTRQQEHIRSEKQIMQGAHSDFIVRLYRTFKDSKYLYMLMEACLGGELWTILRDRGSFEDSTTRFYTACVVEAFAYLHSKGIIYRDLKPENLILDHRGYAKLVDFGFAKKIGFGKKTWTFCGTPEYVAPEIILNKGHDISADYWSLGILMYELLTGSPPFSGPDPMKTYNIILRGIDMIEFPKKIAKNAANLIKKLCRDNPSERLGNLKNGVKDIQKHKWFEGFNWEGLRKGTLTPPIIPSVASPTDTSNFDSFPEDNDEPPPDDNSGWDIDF
Description: as §1

Aurora-B(h) = target: T25, Aurora-B(h) (Homo sapiens, UniProt Q96GD4)
T25 construct: purchased Eurofins Cerep SA (KinaseProfiler)
T25 sequence (Q96GD4 whole entry): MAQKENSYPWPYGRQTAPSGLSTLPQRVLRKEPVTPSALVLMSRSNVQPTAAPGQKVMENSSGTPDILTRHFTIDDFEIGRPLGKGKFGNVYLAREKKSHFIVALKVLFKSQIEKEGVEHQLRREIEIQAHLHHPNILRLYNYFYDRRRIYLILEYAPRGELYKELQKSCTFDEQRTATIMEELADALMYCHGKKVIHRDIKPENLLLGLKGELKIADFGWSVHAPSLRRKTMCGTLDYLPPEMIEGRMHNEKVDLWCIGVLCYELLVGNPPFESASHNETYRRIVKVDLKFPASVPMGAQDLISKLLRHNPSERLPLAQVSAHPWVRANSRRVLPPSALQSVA
Description: as §1

EphB3(h) = target: T26, EphB3(h) (Homo sapiens, UniProt P54753)
T26 construct: purchased Eurofins Cerep SA (KinaseProfiler)
Description: as §1

SRPK1(h) = target: T27, SRPK1(h) (Homo sapiens, UniProt Q96SB4)
T27 construct: purchased Eurofins Cerep SA (KinaseProfiler)
Description: as §1

Fyn(h) = target: T28, Fyn(h) (Homo sapiens, UniProt P06241)
T28 construct: purchased Eurofins Cerep SA (KinaseProfiler)
Description: as §1

Rsk3(h) = target: T29, Rsk3(h) (Homo sapiens, UniProt Q15349)
T29 construct: purchased Eurofins Cerep SA (KinaseProfiler)
T29 sequence (Q15349 whole entry): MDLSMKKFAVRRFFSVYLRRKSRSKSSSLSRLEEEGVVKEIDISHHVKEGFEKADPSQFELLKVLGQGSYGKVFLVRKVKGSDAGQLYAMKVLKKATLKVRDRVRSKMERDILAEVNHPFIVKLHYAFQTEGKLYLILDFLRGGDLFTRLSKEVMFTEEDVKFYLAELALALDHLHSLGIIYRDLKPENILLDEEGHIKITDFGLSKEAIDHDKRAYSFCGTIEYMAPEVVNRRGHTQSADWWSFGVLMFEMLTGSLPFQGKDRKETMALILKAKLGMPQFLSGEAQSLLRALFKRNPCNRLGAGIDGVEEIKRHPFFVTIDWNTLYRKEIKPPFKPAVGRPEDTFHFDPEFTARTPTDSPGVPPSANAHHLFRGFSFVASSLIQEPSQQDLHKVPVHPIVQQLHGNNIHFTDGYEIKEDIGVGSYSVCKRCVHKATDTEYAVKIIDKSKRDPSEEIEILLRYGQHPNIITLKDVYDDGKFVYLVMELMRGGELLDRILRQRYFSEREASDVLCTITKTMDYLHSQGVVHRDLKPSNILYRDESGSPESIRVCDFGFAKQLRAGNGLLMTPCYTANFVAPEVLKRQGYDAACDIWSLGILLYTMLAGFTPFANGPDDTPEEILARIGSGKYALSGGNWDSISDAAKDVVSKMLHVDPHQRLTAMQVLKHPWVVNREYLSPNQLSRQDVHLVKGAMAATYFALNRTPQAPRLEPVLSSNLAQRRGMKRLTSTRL
Description: as §1

SLK(h) = target: T30, SLK(h) (Homo sapiens, UniProt Q9H2G2)
T30 construct: purchased Eurofins Cerep SA (KinaseProfiler)
Description: as §1

BrSK2(h) = target: T31, BrSK2(h) (Homo sapiens, UniProt Q8IWQ3)
T31 construct: purchased Eurofins Cerep SA (KinaseProfiler)
Description: as §1

DCAMKL2(h) = target: T32, DCAMKL2(h) (Homo sapiens, UniProt Q8N568)
T32 construct: purchased Eurofins Cerep SA (KinaseProfiler)
T32 sequence (Q8N568 whole entry): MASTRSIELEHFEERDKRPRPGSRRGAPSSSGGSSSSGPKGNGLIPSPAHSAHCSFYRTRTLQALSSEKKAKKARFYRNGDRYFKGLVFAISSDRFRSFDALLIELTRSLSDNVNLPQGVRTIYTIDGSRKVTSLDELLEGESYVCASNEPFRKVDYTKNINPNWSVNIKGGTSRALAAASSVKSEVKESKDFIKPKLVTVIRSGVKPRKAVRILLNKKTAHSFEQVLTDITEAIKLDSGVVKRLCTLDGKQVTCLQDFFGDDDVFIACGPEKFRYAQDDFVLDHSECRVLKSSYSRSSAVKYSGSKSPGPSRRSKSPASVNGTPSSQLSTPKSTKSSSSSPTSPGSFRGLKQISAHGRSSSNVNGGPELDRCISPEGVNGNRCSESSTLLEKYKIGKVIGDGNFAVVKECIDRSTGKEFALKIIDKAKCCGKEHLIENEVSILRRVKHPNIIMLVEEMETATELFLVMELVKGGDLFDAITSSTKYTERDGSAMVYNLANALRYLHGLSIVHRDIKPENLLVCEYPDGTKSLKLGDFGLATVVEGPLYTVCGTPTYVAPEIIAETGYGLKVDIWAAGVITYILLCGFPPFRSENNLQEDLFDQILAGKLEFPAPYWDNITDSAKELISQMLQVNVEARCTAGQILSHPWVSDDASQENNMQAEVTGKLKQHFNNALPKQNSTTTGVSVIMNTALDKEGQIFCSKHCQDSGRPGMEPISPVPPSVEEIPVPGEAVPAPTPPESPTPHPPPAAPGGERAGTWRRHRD
Description: as §1

Txk(h) = target: T33, Txk(h) (Homo sapiens, UniProt P42681)
T33 construct: purchased Eurofins Cerep SA (KinaseProfiler)
Description: as §1

PKCβII(h) = target: T34, PKCβII(h) (Homo sapiens, UniProt P05771)
T34 construct: purchased Eurofins Cerep SA (KinaseProfiler)
Description: as §1

ACK1(h) = target: T35, ACK1(h) (Homo sapiens, UniProt Q07912)
T35 construct: purchased Eurofins Cerep SA (KinaseProfiler)
Description: as §1

mTOR(h) = target: T36, mTOR(h) (Homo sapiens, UniProt P42345)
T36 construct: purchased Eurofins Cerep SA (KinaseProfiler)
Description: as §1

MKK3(h) = target: T37, MKK3(h) (Homo sapiens, UniProt P46734)
T37 construct: purchased Eurofins Cerep SA (KinaseProfiler)
T37 sequence (P46734 whole entry): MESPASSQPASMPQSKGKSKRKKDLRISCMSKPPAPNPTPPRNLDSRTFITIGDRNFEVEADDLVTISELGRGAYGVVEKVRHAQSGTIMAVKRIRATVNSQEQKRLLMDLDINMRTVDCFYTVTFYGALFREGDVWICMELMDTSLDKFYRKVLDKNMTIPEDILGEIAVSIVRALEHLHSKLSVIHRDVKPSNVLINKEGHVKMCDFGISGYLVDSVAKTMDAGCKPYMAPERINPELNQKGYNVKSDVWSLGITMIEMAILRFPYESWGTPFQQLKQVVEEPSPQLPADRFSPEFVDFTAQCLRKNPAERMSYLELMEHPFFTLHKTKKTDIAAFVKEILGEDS
Description: as §1

FAK(h) = target: T38, FAK(h) (Homo sapiens, UniProt Q05397)
T38 construct: purchased Eurofins Cerep SA (KinaseProfiler)
Description: as §1

MYO3B(h) = target: T39, MYO3B(h) (Homo sapiens, UniProt Q8WXR4)
T39 construct: purchased Eurofins Cerep SA (KinaseProfiler)
Description: as §1

GCK(h) = target: T40, GCK(h) (Homo sapiens, UniProt Q12851)
T40 construct: purchased Eurofins Cerep SA (KinaseProfiler)
Description: as §1

Plk1(h) = target: T41, Plk1(h) (Homo sapiens, UniProt P53350)
T41 construct: purchased Eurofins Cerep SA (KinaseProfiler)
Description: as §1

**Q.** What does the source list for `CN(C)Cc1cccc(Nc2ncc(Cl)c(-c3csc(C(=O)NN4CCOCC4)c3)n2)c1` [SKLB-D18, 4-(5-chloro-2-((3-((dimethylamino)methyl)phenyl)amino)pyrimidin-4-yl)-N-morpholinothiophene-2-carboxamide]?
**A.** inhibition at 1 µM (PDGFRα(h)): 37%; inhibition at 1 µM (Arg(h)): 43%; inhibition at 1 µM (BIKe(h)): 52%; inhibition at 1 µM (PKCμ(h)): 64%; inhibition at 1 µM (STK25(h)): 7%; inhibition at 1 µM (IGF-1R(h)): 7%; inhibition at 1 µM (PIP4K2a(h)): -1%; inhibition at 1 µM (GSK3α(h)): 58%; inhibition at 1 µM (DDR2(h)): -2%; inhibition at 1 µM (CaMKI(h)): 16%; inhibition at 1 µM (Yes(h)): 65%; inhibition at 1 µM (MARK3(h)): 68%; inhibition at 1 µM (PIP5K1g(h)): -4%; inhibition at 1 µM (TrkC(h)): 43%; inhibition at 1 µM (cSRC(h)): 55%; inhibition at 1 µM (cKit(h)): 69%; inhibition at 1 µM (WNK3(h)): 9%; inhibition at 1 µM (GRK3(h)): 2%; inhibition at 1 µM (MST3(h)): 19%; inhibition at 1 µM (IKKβ(h)): 53%; inhibition at 1 µM (ROCK-I(h)): 10%; inhibition at 1 µM (HIPK2(h)): 67%; inhibition at 1 µM (Pim-2(h)): 26%; inhibition at 1 µM (PKG1β(h)): 4%; inhibition at 1 µM (Aurora-B(h)): 66%; inhibition at 1 µM (EphB3(h)): 3%; inhibition at 1 µM (SRPK1(h)): -2%; inhibition at 1 µM (Fyn(h)): 60%; inhibition at 1 µM (Rsk3(h)): 66%; inhibition at 1 µM (SLK(h)): 4%; inhibition at 1 µM (BrSK2(h)): 23%; inhibition at 1 µM (DCAMKL2(h)): 55%; inhibition at 1 µM (Txk(h)): 26%; inhibition at 1 µM (PKCβII(h)): 28%; inhibition at 1 µM (ACK1(h)): 14%; inhibition at 1 µM (mTOR(h)): -4%; inhibition at 1 µM (MKK3(h)): 4%; inhibition at 1 µM (FAK(h)): 17%; inhibition at 1 µM (MYO3B(h)): 4%; inhibition at 1 µM (GCK(h)): 57%; inhibition at 1 µM (Plk1(h)): -5%
